Source: PMC4876372 (Scientific Reports, 2016)
Like-named read-outs stand apart in the source and are kept apart here.

Legend:
[1] = molecular target: T1, His-tagged human recombinant MTH1 protein (Homo sapiens, UniProt P36639); test: MTH1 enzyme assay (PPiLight pyrophosphate detection); assay type: biochemical; settings: for IC50: MTH1 2 nM; for Ki: Dixon plot; for manner of MTH1 inhibition: with respect to 8-oxo-dGTP and 2-OH-dATP, Lineweaver-Burk
T1 construct: His; purchased ProSpec
Experimental: An MTH1 enzyme assay was performed as described previously with minor modifications. Briefly, test compounds were dissolved in an assay buffer [100 mM Tris-acetate, 40 mM NaCl, 10 mM Mg(OAc)2, 0.005% Tween-20, and 2 mM dithiothreitol (DTT), pH 7.5] containing His-tagged human recombinant MTH1 protein (2 nM; ProSpec). […] Relative MTH1 activity was measured by monitoring the pyrophosphate (PPi) generated through MTH1-catalyzed nucleotide triphosphate hydrolysis. The luciferase-mediated luminescence signal was recorded for 30 min using a luminometer (Molecular Devices).

[2] = molecular target: T2, His-tagged human recombinant DCTPP1 protein (Homo sapiens, UniProt Q9H773); test: DCTPP1 enzyme assay; assay type: biochemical; settings: at 100 μM
T2 construct: His; purchased ATGen
T2 sequence (Q9H773 1-170): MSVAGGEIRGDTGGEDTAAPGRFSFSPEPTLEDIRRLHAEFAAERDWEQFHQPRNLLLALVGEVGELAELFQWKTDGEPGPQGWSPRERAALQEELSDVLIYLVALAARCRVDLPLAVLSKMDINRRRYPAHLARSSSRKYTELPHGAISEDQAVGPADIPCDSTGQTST
Experimental: Likewise, the enzymatic activities of ITPA and DCTPP1 were measured using a PPiLight Inorganic Pyrophosphate Assay kit. For the ITPA enzyme assay, we used ITPA assay buffer (100 mM Tris-acetate, 50 mM Mg(OAc)2, 0.005% Tween-20, and 2 mM DTT, pH 7.5), His-tagged human recombinant ITPA protein (5 nM; ProSpec), and ITP (25 μM). For the DCTPP1 enzyme assay, we used DCTPP1 assay buffer (100 mM Tris-acetate, 100 mM NaCl, 10 mM Mg(OAc)2, 0.005% Tween-20, and 2 mM DTT, pH 7.5), His-tagged human recombinant DCTPP1 protein (50 nM; ATGen), and deoxycytidine triphosphate (dCTP; 50 μM).
To exclude false positive compounds that inhibit PPi detection, the effects of test compounds on 10 μM Na4P2O7-induced luciferase activity were examined.

[3] = Cell death assay (WST-8) in HeLa cells; assay type: cell-based, human; settings: human, HeLa cells (cervical cancer); 72 h, WST-8; read-out: cytotoxicity IC50 against HeLa cells
Experimental: (§1) Human cancer cell lines HeLa (cervical cancer), MIA PaCa-2 (pancreatic cancer), A431 (epidermoid carcinoma), and human embryonic kidney derived cell line HEK293T were cultured in Dulbecco’s Modified Eagle’s Medium (DMEM; Invitrogen) containing 10% fetal bovine serum (FBS), penicillin G (50 units/mL) and streptomycin (50 µg/mL). Human cancer cell lines Panc-1 (pancreatic cancer) and Jurkat (T cell lymphoma) were cultured in RPMI (Gibco) containing 10% FBS, penicillin G (50 units/mL) and streptomycin (50 µg/mL). Human osteosarcoma cell line MG-63, mouse embryonic fibroblast NIH3T3 cells and its transformant NIH3T3/KRAS cells1 were cultured in DMEM (Sigma-Aldrich) containing 10% calf serum, glutamine (0.3 g/L), penicillin G (50 units/mL), and streptomycin (50 µg/mL). All cell lines were incubated at 37 °C in a humidified atmosphere containing 5% CO2.
(§2) The cells were seeded in 96-well plates, cultured overnight, and treated with test compounds for the indicated time. Subsequently, cell viability was measured by the WST-8 assay, using Cell Count Reagent SF (Nacalai Tesque) according to the manufacturer ’s instructions, with the measurement of absorbance set at 450 nm on the ARVO SX 1420 Multilabel Counter (Wallac). […]

[4] = system: PANC-1, MIA PaCa-2, A431, Jurkat, MG-63, NIH3T3 and NIH3T3/KRAS cells; assay type: cell-based; settings: 72 or 96 h, WST-8
Experimental: as §1, §2

[5] = substrate 2-OH-dATP (8.3 μM), read-out: IC50 of MTH1 inhibitory activity, 2-OH-dATP
[6] = substrate 2-OH-dATP, read-out: Ki for 2-OH-dATP
[7] = substrate 8-oxo-dGTP, read-out: Ki for 8-oxo-dGTP

CC1(C)CC2CC(C)(CN2c2ncnc3[nH]cnc23)C1 (stereo not drawn) [NPD7155]
IC50 [1, 5]: 380 ± 160 nM
Ki [1, 6]: 180 ± 30 nM
Ki [1, 7]: 100 ± 40 nM
manner of MTH1 inhibition [1]: competitive
effect on enzymatic activity of DCTPP1 [2]: did not affect
IC50 at 72 h [3]: 65000 nM
cytotoxicity against cancer cell lines and KRAS-transformed fibroblast cells [4]: less potent cytotoxicity

Nc1nc(NCCc2ccccc2)c2nc[nH]c2n1 [NPD9948]
IC50 [1, 5]: 500 ± 210 nM
Ki [1, 6]: 220 ± 40 nM
IC50 ([1]; substrate 8-oxo-dGTP (13.2 μM), read-out: IC50 of MTH1 inhibitory activity, 8-oxo-dGTP): 290 ± 50 nM
Ki [1, 7]: 130 ± 50 nM
manner of MTH1 inhibition [1]: competitive
effect on enzymatic activity of DCTPP1 [2]: did not affect
IC50 at 72 h [3]: 35000 nM
cytotoxicity against cancer cell lines and KRAS-transformed fibroblast cells [4]: less potent cytotoxicity
